Test results published in ChEMBL document CHEMBL3739293, “Synthesis of unusual isoxazoline containingand-dipeptides as potential glutamate receptor ligands” (Medchemcomm, 2015).

How the values were obtained:
Glutamate NMDA receptor = experiment: Displacement of [3H]CGP39653 from NMDA receptor in Sprague-Dawley rat brain synaptic membrane
[1] = Displacement of [3H]KA from KA receptor in Sprague-Dawley rat brain synaptic membrane
[2] = Displacement of [3H]AMPA from AMPA receptor in Sprague-Dawley rat brain synaptic membrane

Compound: N[C@@H](CCC(=O)N1C[C@@H]2ON=C(O)[C@@H]2C1)C(=O)O
- Ki (Glutamate NMDA receptor): 25 µM
- pKi (Glutamate NMDA receptor): 4.63
- IC50 [1]: 37 µM
- pIC50 [1]: 4.43
- IC50 [2]: 43 µM
- pIC50 [2]: 4.37

Compound: N[C@@H](CCC(=O)N1C[C@@H]2C(O)=NO[C@@H]2C1)C(=O)O (single isomer, unassigned)
- Ki (Glutamate NMDA receptor): 41 µM
- pKi (Glutamate NMDA receptor): 4.41
- IC50 [1]: 59 µM
- pIC50 [1]: 4.23
- IC50 [2]: 48 µM
- pIC50 [2]: 4.36

Compound: N[C@@H](CCC(=O)N1C[C@@H]2ON=C(C(=O)O)[C@@H]2C1)C(=O)O
- Ki (Glutamate NMDA receptor): 24 µM
- pKi (Glutamate NMDA receptor): 4.64
- IC50 [1]: 66 µM
- pIC50 [1]: 4.2
- IC50 [2]: 46 µM
- pIC50 [2]: 4.34

Compound: N[C@H](CCC(=O)N1C[C@@H]2C(O)=NO[C@@H]2C1)C(=O)O
- Ki (Glutamate NMDA receptor): > 100 µM
- IC50 [1]: > 100 µM
- IC50 [2]: > 100 µM

Compound: N[C@H](CCC(=O)N1C[C@@H]2C(C(=O)O)=NO[C@@H]2C1)C(=O)O
- Ki (Glutamate NMDA receptor): 58 µM
- pKi (Glutamate NMDA receptor): 4.24
- IC50 [1]: > 100 µM
- IC50 [2]: > 100 µM

Compound: N[C@H](CCC(=O)N1C[C@@H]2ON=C(O)[C@@H]2C1)C(=O)O (single isomer, unassigned)
- Ki (Glutamate NMDA receptor): > 100 µM
- IC50 [1]: > 100 µM
- IC50 [2]: > 100 µM

Compound: N[C@H](CCC(=O)N1C[C@@H]2ON=C(C(=O)O)[C@@H]2C1)C(=O)O (single isomer, unassigned)
- Ki (Glutamate NMDA receptor): 28 µM
- pKi (Glutamate NMDA receptor): 4.56
- IC50 [1]: 56 µM
- pIC50 [1]: 4.25
- IC50 [2]: 67 µM
- pIC50 [2]: 4.18

Compound: N[C@@H](CCC(=O)N1C[C@@H]2C(C(=O)O)=NO[C@@H]2C1)C(=O)O (single isomer, unassigned)
- Ki (Glutamate NMDA receptor): 21 µM
- pKi (Glutamate NMDA receptor): 4.68
- IC50 [1]: 40 µM
- pIC50 [1]: 4.39
- IC50 [2]: 34 µM
- pIC50 [2]: 4.48
